Tested on: L1210
Assay: Antiproliferative activity against mouse L1210 leukemia cell line
Format: functional, cell-based

SMILES	IC50
C=C1C(=O)ON(C)C1c1cccc2ccccc12 (configuration not stated)	3.2 µM
C=C1C(=O)ON(C)C1c1ccc([N+](=O)[O-])cc1 (configuration not stated)	0.8 µM
C=C1C(=O)ON(C)C1c1ccc2c(c1)OCO2 (configuration not stated)	7 µM
C=C1C(=O)ON(C)C1c1ccc(Br)cc1 (configuration not stated)	0.7 µM

Other lines, results leading:

IC50	SMILES
1.9 µM	C=C1C(=O)ON(C)C1C(C)CCC (configuration not stated)
5.5 µM	C=C1C(=O)ON(C)C1c1ccccc1 (configuration not stated)
0.8 µM	C=C1C(=O)ON(C)C1c1ccc(C)cc1 (configuration not stated)
2.63 µM	C=C1C(=O)ON(C)C1C(C)C (configuration not stated)
3.5 µM	C=C1C(=O)ON(C)C1c1ccc(OC)cc1 (configuration not stated)

Tested on: HL-60
Assay: Antiproliferative activity against human HL60 leukemia cell line
Format: functional, cell-based

SMILES	IC50
C=C1C(=O)ON(C)C1c1cccc2ccccc12 (configuration not stated)	5.6 µM
C=C1C(=O)ON(C)C1c1ccc([N+](=O)[O-])cc1 (configuration not stated)	7.4 µM
C=C1C(=O)ON(C)C1c1ccc2c(c1)OCO2 (configuration not stated)	6.6 µM
C=C1C(=O)ON(C)C1c1ccc(Br)cc1 (configuration not stated)	5.1 µM

Continued, values first:

IC50	SMILES
4.7 µM	C=C1C(=O)ON(C)C1C(C)CCC (configuration not stated)
34.8 µM	C=C1C(=O)ON(C)C1c1ccccc1 (configuration not stated)
5.4 µM	C=C1C(=O)ON(C)C1c1ccc(C)cc1 (configuration not stated)
0.74 µM	C=C1C(=O)ON(C)C1C(C)C (configuration not stated)
5.4 µM	C=C1C(=O)ON(C)C1c1ccc(OC)cc1 (configuration not stated)

Tested on: NALM-6
Assay: Antiproliferative activity against human NALM6 leukemia cell line
Format: functional, cell-based

SMILES	IC50
C=C1C(=O)ON(C)C1C(C)CCC (configuration not stated)	0.34 µM
C=C1C(=O)ON(C)C1c1ccccc1 (configuration not stated)	4.96 µM
C=C1C(=O)ON(C)C1c1cccc2ccccc12 (configuration not stated)	4.2 µM
C=C1C(=O)ON(C)C1c1ccc(C)cc1 (configuration not stated)	5.8 µM
C=C1C(=O)ON(C)C1c1ccc([N+](=O)[O-])cc1 (configuration not stated)	5.2 µM
C=C1C(=O)ON(C)C1c1ccc2c(c1)OCO2 (configuration not stated)	4.2 µM
C=C1C(=O)ON(C)C1c1ccc(Br)cc1 (configuration not stated)	4.6 µM
C=C1C(=O)ON(C)C1C(C)C (configuration not stated)	4.16 µM
C=C1C(=O)ON(C)C1c1ccc(OC)cc1 (configuration not stated)	5.5 µM

Source: ChEMBL document CHEMBL1139040, “4-Methylideneisoxazolidin-5-ones--a new class of alpha-methylidene-gamma-lactones with high cytostatic activity” (Bioorg Med Chem Lett, 2006)
